System: Rats
Test: not given
Conditions: no unit in table, b36: normally expressed as mg per kilogram of body mass; cited from earlier work

SMILES	Acute Oral Effect LD50 Rats
C[N+](C)(C)CCO.[Cl-] [Choline Chloride]	3,400
O=S([O-])([O-])=S.[Na+].[Na+] [Sodium Thiosulfate]	2,890
C[N+](C)(C)C.[Cl-] [Tetramethylammonium Chloride]	94
CN1CSC(=S)N(C)C1 [Dazomet, tetrahydro-3,5-dimethyl-2H-1,3,5-thiadiazine-2-thione]	519
Cc1cc(O)cc(C)c1Cl [PCMX]	3,830
O=C1O[C@H]([C@H](O)CO)C([O-])=C1O.[Na+] [Sodium Erythorbate]	5,000
O=S([O-])O.[Na+] [Sodium Bisulfite]	1,131

System: not listed separately
Test: Flowability: drainage time through a wide-mouth funnel
Conditions: dry powder flowability
Description: Also, the powder must be flowable (low angle of repose), with the flow measured as the drainage time through a wide-mouth funnel.

SMILES	Time in Minutes (drainage time through a wide-mouth funnel)
N.N.O=S(=O)(O)OOS(=O)(=O)O [Ammonium Persulfate]	0.2 min
[Cl-].[K+] [Potassium Chloride]	0.05 min

System: not listed separately
Test: Apparent density by volume increase of a dispersion of known weight of solid in mineral oil
Format: physicochemical
Conditions: not given
Description: If batch mix operations (illustrated in FIG. 1) are used so that time of mixing is not critical, particle size of the components used in the blend can be as large as 18 mesh (1.0 mm). However, if the mixing is to be based on a continuous mix process (FIG. 2), timing becomes more critical, requiring that the polymeric components disperse and begin hydration prior to reaching the well head. In this case, the particle size of the components preferably is 40 mesh (0.420 mm) or smaller, but more preferably 80 mesh (0.177 mm) or smaller. Also, it is preferred that the particle size and the apparent density of all the components be about the same (to minimize segregation during shipping and storage). Apparent densities of selected commercial components, as measured by measuring volume increase of a dispersion of a known weight of solid in mineral oil, are shown in Table 2. A dry blend preferably will be formed of components for each function in a fracturing fluid having apparent densities and particle sizes matched to the best extent possible. Inert solids, such as fumed silica, may be combined with active ingredients to form solid particles having a preferred density.

SMILES	Apparent Density
O=S([O-])([O-])=S.[Na+].[Na+] [Sodium Thiosulfate]	1.667 g/mL
CN1CSC(=S)N(C)C1 [Dazomet 99%]	1.111 g/mL

— patent US20120157356A1, “Hydraulic fracturing with slick water from dry blends” (priority 2010, published 2012)
